Assay results: BindingDB's records for patent US9556111 (UNIVERSITETET I OSLO, 2017)

Target: A-kinase anchor protein 7 isoform gamma (Human, UniProt Q9P0M2)
Assay: Binding Assay
Protocol: Stable and optimal assay conditions were determined by cross-titrating GST-AKAP18δ and biotinylated PLB using 10 μg/ml glutathione acceptor beads and 10 μg/ml streptavidin donor beads in an AlphaScreen assay. The excitation wavelength was 680 nm, with the emission wavelength being 520-560 nm. Signal intensity in each well was registered and the optimal concentration to use was chosen to be the concentration prior to the peak of the signal.

A-kinase anchor protein 7 isoform gamma, sequence (Q9P0M2 whole entry, canonical isoform): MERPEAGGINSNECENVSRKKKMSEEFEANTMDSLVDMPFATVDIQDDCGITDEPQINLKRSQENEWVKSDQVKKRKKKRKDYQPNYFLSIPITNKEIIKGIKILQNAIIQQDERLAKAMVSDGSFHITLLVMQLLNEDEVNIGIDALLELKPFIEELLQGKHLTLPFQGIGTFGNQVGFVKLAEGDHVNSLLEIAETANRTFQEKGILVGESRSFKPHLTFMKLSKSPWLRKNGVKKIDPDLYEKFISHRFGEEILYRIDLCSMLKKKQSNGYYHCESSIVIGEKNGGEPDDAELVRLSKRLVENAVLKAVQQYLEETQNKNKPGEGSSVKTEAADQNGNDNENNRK

EC50: 5.2 µM
Structure (SMILES): Cc1ccc(NC(=O)Nc2ccc(CN(Cc3ccc(NC(=O)Nc4ccc(C)cc4)cc3)Cc3ccc(NC(=O)Nc4ccc(C)cc4)cc3)cc2)cc1 [US9556111, Table 1.20]
